# Measurements as given in BindingDB's records for doi:10.1021/jm00072a017 (Farmitalia Carlo Erba, 1993).
# Target: T1, Thromboxane-A synthase (Rattus norvegicus, UniProt P49430)
# T1 sequence (P49430 whole entry): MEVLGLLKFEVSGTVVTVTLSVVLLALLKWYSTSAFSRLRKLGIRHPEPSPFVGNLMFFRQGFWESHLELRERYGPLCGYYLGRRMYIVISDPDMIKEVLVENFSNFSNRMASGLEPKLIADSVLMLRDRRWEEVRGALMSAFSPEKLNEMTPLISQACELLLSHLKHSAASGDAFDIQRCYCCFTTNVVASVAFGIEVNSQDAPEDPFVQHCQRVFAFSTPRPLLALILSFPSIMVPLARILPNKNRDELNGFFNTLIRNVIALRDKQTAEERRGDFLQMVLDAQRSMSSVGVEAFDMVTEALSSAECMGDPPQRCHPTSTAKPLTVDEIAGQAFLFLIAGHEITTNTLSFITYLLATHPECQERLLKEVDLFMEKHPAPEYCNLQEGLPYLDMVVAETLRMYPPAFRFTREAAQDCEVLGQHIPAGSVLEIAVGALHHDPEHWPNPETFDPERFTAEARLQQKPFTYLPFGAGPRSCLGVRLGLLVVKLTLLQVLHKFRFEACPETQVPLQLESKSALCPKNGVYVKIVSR
# Assay: ChEBML_213089
# Text: In vitro inhibition of thromboxane B2 production in rat whole blood.
row,SMILES,IC50 [µM]
1,"CCOC(=O)C1=C(C)N=C(C)C(C(=O)OCC)C1c1ccccc1-n1ccnc1 (stereo unspecified) [4-(2-Imidazol-1-yl-phenyl)-2,6-dimethyl-1,4-dihydro-pyridine-3,5-dicarboxylic acid diethyl ester]",> 1
2,"CCOC(=O)C1=C(C)N=C(C)C(C(=O)O)C1c1cccc(-n2ccnc2)c1 (stereo unspecified) [4-(3-Imidazol-1-yl-phenyl)-2,6-dimethyl-1,4-dihydro-pyridine-3,5-dicarboxylic acid monoethyl ester]",> 1
3,"CCOC(=O)C1=C(C)N=C(C)C(C(=O)OCC)C1c1ccc(-n2ccnc2)cc1 (stereo unspecified) [4-(4-Imidazol-1-yl-phenyl)-2,6-dimethyl-1,4-dihydro-pyridine-3,5-dicarboxylic acid diethyl ester]",> 1

# Continued, values first:
row,IC50 [µM],SMILES
1,> 1,"CCOC(=O)C1=C(CC)N=C(CC)C(C(=O)OCC)C1c1cccc(-n2ccnc2)c1 (stereo unspecified) [2,6-Diethyl-4-(3-imidazol-1-yl-phenyl)-1,4-dihydro-pyridine-3,5-dicarboxylic acid diethyl ester]"
2,> 1,"CCOC(=O)C1C(C)=NC(C)=C(C(=O)OCCN(C)Cc2ccccc2)C1c1cccc(-c2cccnc2)c1 (stereo unspecified) [2,6-Dimethyl-4-(3-pyridin-3-yl-phenyl)-1,4-dihydro-pyridine-3,5-dicarboxylic acid 3-[2-(benzyl-methyl-amino)-ethyl] ester 5-ethyl ester]"
3,> 1,"CC1=NC(C)=C(C(=O)OCC(C)C)C(c2cccc(-c3cccnc3)c2)C1C(=O)OCC(C)C (stereo unspecified) [2,6-Dimethyl-4-(3-pyridin-3-yl-phenyl)-1,4-dihydro-pyridine-3,5-dicarboxylic acid diisobutyl ester]"
